Data from publication PMC4026384, “Antibacterial Activity of THAM Trisphenylguanide against Methicillin-Resistant Staphylococcus aureus” (PLoS ONE, 2014).
Converted amounts (≈) assume the structure as drawn. “Also recorded” adds a separate entry of the source. Read-outs that look alike come from different tables or passages of the source.

Experiments:
MRSA strain LAC, USA300 = assay: Minimum inhibitory concentration (microdilution); assay type: cell-based, Staphylococcus aureus; conditions: assay described in Material and Methods; controls of the MRSA leakage assay (Figure S2)
Procedure: Minimum inhibitory concentration (MIC) values were determined for those compounds showing the most antibacterial activity in the bacterial viability assays (see Supplemental Materials) against each of the strains of bacteria using a microdilution method in 96 well plates with LB media according to guidelines published by the British Society for Antimicrobial Chemotherapy. Minimum bactericidal concentrations (MBC) were determined by plating 10 µL and 100 µL from each well showing no signs of growth after overnight incubation of the MIC plates and determining the minimum concentration showing a 3-log reduction of viable bacteria. MIC and MBC were also determined in cation-adjusted Mueller-Hinton broth (Hardy Diagnostics, Santa Maria, CA) for some compounds and strains.

MRSA = assay: Cytoplasmic leakage & bacteriolysis assay; assay type: cell-based, Staphylococcus aureus; conditions: 1× to 4×MIC, over the 3 hour period
Procedure: Bacteria were cultured to mid-log phase (OD600 ∼0.4) in LB media with shaking. Bacteria were then harvested and resuspended in PBS to a concentration of ∼10^8 CFU/mL. […] Bacteria were monitored over time for cytoplasmic leakage via A260 measurements and for cell viability. For A260 readings, sample aliquots were centrifuged for 5 min at 10,000×g at room temperature to remove cellular debris. Viability was monitored by determining the CFU/mL during the first 3 hours post treatment as described above for the kill curve assays.

E. faecalis V583 = assay: Bacterial viability assay; assay type: cell-based, Enterococcus faecalis; conditions: one hour in PBS, CFU, ± SEM
Procedure: (§1) Supplementary file pone.0097742.s003.doc: Table S1 Bacterial viability assays. Bacteria were grown at 37°C to mid-log phase (OD600 ∼0.4). The bacteria were diluted to approximately 10^4 to 10^5 colony forming units (CFU) per milliliter and added to a solution of phosphate buffered saline (PBS, 16 mM phosphate, 0.14 M NaCl, pH 7.2) containing the compound at varied concentrations. Samples were incubated at 37°C for one hour and then plated on Luria Bertani (LB) agar at appropriate dilutions in PBS. The plates were incubated overnight at 37°C and colonies enumerated the following day. IC50s were calculated from graphs of CFU as a function of compound concentration. Chlorhexidine was used as a positive control. […] (DOC) Click here for additional data file.
(§2) Bacterial viability assays. Bacteria were grown at 37°C to mid-log phase (OD600 ~0.4). The bacteria were diluted to approximately 10^4 to 10^5 colony forming units (CFU) per milliliter and added to a solution of phosphate buffered saline (PBS, 16 mM phosphate, 0.14 M NaCl, pH 7.2) containing the compound at varied concentrations. Samples were incubated at 37°C for one hour and then plated on Luria Bertani (LB) agar at appropriate dilutions in PBS. The plates were incubated overnight at 37°C and colonies enumerated the following day. IC50s were calculated from graphs of CFU as a function of compound concentration. Chlorhexidine was used as a positive control.

E. faecalis MSU#10 = assay: Bacterial viability assay; assay type: cell-based, Enterococcus faecalis; conditions: E. faecalis MSU#10, one hour in PBS, CFU, ± SEM, read-out: IC50
Procedure: as §1, §2

MRSA USA300 = assay: Bacterial viability assay; assay type: cell-based, Staphylococcus aureus; conditions: one hour in PBS, CFU, ± SEM
Procedure: as §1, §2

S. aureus RN4220 = assay: Bacterial viability assay; assay type: cell-based, Staphylococcus aureus; conditions: one hour in PBS, CFU, ± SEM
Procedure: (§3) Supplementary file pone.0097742.s003.doc: Table S1 Bacterial viability assays. Bacteria were grown at 37°C to mid-log phase (OD600 ∼0.4). The bacteria were diluted to approximately 10^4 to 10^5 colony forming units (CFU) per milliliter and added to a solution of phosphate buffered saline (PBS, 16 mM phosphate, 0.14 M NaCl, pH 7.2) containing the compound at varied concentrations. Samples were incubated at 37°C for one hour and then plated on Luria Bertani (LB) agar at appropriate dilutions in PBS. The plates were incubated overnight at 37°C and colonies enumerated the following day. IC50s were calculated from graphs of CFU as a function of compound concentration. Chlorhexidine was used as a positive control. Included are those guanide (G), biguanide (BG), phenylguanide (ΦG) compounds that had some antibacterial activity in an initial screen at 30 and 100 µM, as well as their and parent amines. Compounds synthesized from 1,4-butanediamine, 1,6-hexanediamine, trisethylaminomelamine, trisbutylaminomelamine, and the dendrimer PAMAM (G0) were not active against E. coli, P aeruginosa, or S. aureus so they were not tested against the remaining bacteria (data not shown). (DOC) Click here for additional data file.
as §3, with “Bacterial” for “Supplementary file pone.0097742.s003.doc: Table S1 Bacterial”, “~0.4).” for “∼0.4).”, “μM,” for “µM,”, “shown).” for “shown). (DOC) Click here for additional data file.”

P. aeruginosa PA01 = assay: Bacterial viability assay; assay type: cell-based, Pseudomonas aeruginosa; conditions: one hour in PBS, CFU, ± SEM
Procedure: as §1, §2

A. baumannii ATCC 19606 = assay: Bacterial viability assay; assay type: cell-based, Acinetobacter baumannii; conditions: one hour in PBS, CFU, ± SEM
Procedure: as §1, §2

[1] = tested on: A. baumannii ATCC BAA1605; assay: Bacterial viability assay; assay type: cell-based, Acinetobacter baumannii; conditions: one hour in PBS, CFU, ± SEM
Procedure: as §1, §2

[2] = tested on: human breast cancer cell line MDA-MB-231; assay: Cell toxicity assay (MTS); assay type: cell-based; conditions: MDA-231; for CC50: MTS assay, concentration which killed 50% of the cells
Procedure: (§4) The HaCaT cell line was grown in Epilife medium (MEPI500Ca) with human keratinocyte growth supplement (Invitrogen, San Diego, CA). Both types of cells were harvested using Tryspin/EDTA and diluted to 1×10^5 cells per well in a 96-well plate. Ten concentrations covering five orders of magnitude were tested with six replicates per concentration. […] MTS/PMS solution (Promega, Madison, WI) was added to the wells and absorbance was measured at 490 nm two to four hours later. Data was analyzed using GraphPad Prism version 5.0 (GraphPad Software, La Jolla, CA) using a variable slope inhibition dose response curve.

[3] = tested on: HaCaT human keratinocytes; assay: Cell toxicity assay (MTS); assay type: cell-based; conditions: for CC50: MTS assay, concentration which killed 50% of the cells
Procedure: as §4

E. coli K91 = assay: Bacterial viability assay; assay type: cell-based, Escherichia coli; conditions: one hour in PBS, CFU, ± SEM
Procedure: as §1, §2

[4] = Cell toxicity assay (MTS); assay type: cell-based, human; conditions: human, MTS assay, concentration which killed 50% of the cells
Procedure: as §4

[5] = Acinetobacter baumannii, ATCC19606, 1 h
[6] = Acinetobacter baumannii, ATCCBAA1605, 1 h
[7] = MDA-MB-231 breast cancer cells (ATCC HTB-26), MDA-231

| Compound | IC50 (E. faecalis V583) | IC50 (E. faecalis MSU#10) | IC50 (MRSA USA300) | IC50 (S. aureus RN4220) | IC50 (P. aeruginosa PA01) | IC50 (A. baumannii ATCC 19606) | IC50 [1] | Relative to chlorhexidine (factor by which cytotoxicity was reduced) [2] | CC50 [2] | Relative to chlorhexidine (factor by which cytotoxicity was reduced) [3] | CC50 [3] | IC50 (E. coli K91) | further results |
| --- | --- | --- | --- | --- | --- | --- | --- | --- | --- | --- | --- | --- | --- |
| CC1(C)S[C@@H]2[C@H](NC(=O)[C@H](N)c3ccccc3)C(=O)N2[C@H]1C(=O)O [Ampicillin] |  |  |  |  |  |  |  |  |  |  |  |  | MIC of control antibiotics (MRSA strain LAC, USA300): 32 µg/mL; change in A260 of culture supernatant (cytoplasmic leakage), control antibiotics (MRSA): no increase in A260; also recorded: Significant increases in A260 were not seen |
| N=C(NCCCCN(CCCNC(=N)Nc1ccccc1)C(=N)Nc1ccccc1)Nc1ccccc1 [Spermidine-3ΦG] | > 100 µM | > 100 µM | > 100 µM | > 100 µM | > 100 µM | > 100 µM | > 100 µM | 170 | 430 µg/mL (≈ 861 µM) | 210 | 400 µg/mL (≈ 801 µM) | 3.2 ± 0.9 µM |  |
| NCCCCNCCCN [Spermidine] |  |  |  |  |  |  |  | 8.5 |  | >79 |  |  | IC50 (E. faecalis V583; Enterococcus faecalis, 1 h): > 100 µM; IC50 (E. faecalis MSU#10; Enterococcus faecalis, 1 h): > 100 µM; IC50 (MRSA USA300; Staphylococcus aureus, 1 h): > 100 µM; IC50 (S. aureus RN4220; Staphylococcus aureus, 1 h): > 100 µM; IC50 (P. aeruginosa PA01; Pseudomonas aeruginosa, 1 h): > 100 µM; IC50 (A. baumannii ATCC 19606; [5]): > 100 µM; IC50 [1, 6]: > 100 µM; CC50 ([4]; HaCaT keratinocytes): > 150 µg/mL; CC50 [4, 7]: 22 µg/mL (≈ 151 µM); IC50 (E. coli K91; Escherichia coli, 1 h): > 100 µM |
| N=C(NCCCN(CCCCN(CCCNC(=N)Nc1ccccc1)C(=N)Nc1ccccc1)C(=N)Nc1ccccc1)Nc1ccccc1 [Spermine-4ΦG] | > 100 µM | > 100 µM | > 100 µM |  | > 100 µM | ≥ 100 µM | ≥ 100 µM | >43 | >110 µg/mL | 56 | 110 µg/mL (≈ 163 µM) | 23 ± 16 µM |  |
| NCCCNCCCCNCCCN [Spermine] |  |  |  |  |  |  |  | 3.7 |  | >110 |  |  | IC50 (E. faecalis V583; Enterococcus faecalis, 1 h): > 100 µM; IC50 (E. faecalis MSU#10; Enterococcus faecalis, 1 h): > 100 µM; IC50 (MRSA USA300; Staphylococcus aureus, 1 h): > 100 µM; IC50 (S. aureus RN4220; Staphylococcus aureus, 1 h): > 100 µM; IC50 (P. aeruginosa PA01; Pseudomonas aeruginosa, 1 h): ≥ 100 µM; IC50 (A. baumannii ATCC 19606; [5]): ≥ 100 µM; IC50 [1, 6]: 79 ± 24 µM; CC50 ([4]; HaCaT keratinocytes): > 200 µg/mL; CC50 [4, 7]: 10 µg/mL (≈ 49.4 µM); IC50 (E. coli K91; Escherichia coli, 1 h): > 100 µM |
| N=C(N)NCCCCCCNc1nc(NCCCCCCNC(=N)N)nc(NCCCCCCNC(=N)N)n1 [THAM-3G] | > 100 µM | > 100 µM | > 100 µM | > 100 µM | 14 ± 3 µM | 23 ± 14 µM | 14 ± 4 µM | 29 | 74 µg/mL (≈ 135 µM) | 33 | 63 µg/mL (≈ 115 µM) | 31 ± 12 µM |  |
| NCCCCCCNc1nc(NCCCCCCN)nc(NCCCCCCN)n1 [THAM] | > 100 µM | > 100 µM | > 100 µM | > 100 µM | > 100 µM | > 100 µM | > 100 µM | >290 | >770 µg/mL | 100 | 200 µg/mL (≈ 472 µM) | > 100 µM |  |
| N=C(NCCCCCCCCNc1nc(NCCCCCCCCN)nc(NCCCCCCCCNC(=N)Nc2ccccc2)n1)Nc1ccccc1 [TOAM-2ΦG] | 11 ± 3 µM | 6.1 ± 4.9 µM | 0.6 ± 0.32 µM | 2.4 ± 0.1 µM | 1.6 ± 0.4 µM | 0.64 ± 0.19 µM | 0.96 ± 0.02 µM |  |  | 1.6 | 3.1 µg/mL (≈ 4.17 µM) | 0.75 ± 0.09 µM |  |
| CNC(C)C1CCC(N)C(OC2C(N)CC(N)C(OC3OCC(C)(O)C(NC)C3O)C2O)O1 (stereo not shown) [gentamicin] |  |  |  |  |  |  |  |  |  |  |  |  | MIC of control antibiotics (MRSA strain LAC, USA300): 0.5 µg/mL; change in A260 of culture supernatant (cytoplasmic leakage), control antibiotics (MRSA): no increase in A260; also recorded: Significant increases in A260 were not seen |
